Consider three molecules from US20100031388A1, “MUTANT HISTIDINE KINASE THAT CONFERS SPONTANEOUS NODULATION IN PLANTS” (Plant Biosciences Ltd., priority 2006, published 2010).

Test [1] deals with Lrr5, Lhk1 and Nin transcripts. Description: Quantitative RT-PCR of Lrr5, Lhk1 and Nin transcripts in roots and root explants in response to cytokinin. The test is classed as in vivo, Lotus japonicus. How it is done: Steady state levels of Lhk1 and ARR transcripts were determined in roots and other plant organs by quantitative RT-PCR analysis according to the following protocol.
Wild type and snf2 seeds were surface sterilised and germinated as described previously (Handberg, and Stougaard, (1992) Plant J. 2: 487). Plants were grown with 16 h light/8 h dark period at 21° C. Total RNA was isolated from roots, nodules, leaves, flowers and pods of inoculated wild type L. japonicus. mRNA was extracted from roots of wild type and snf2 plants grown for 2 weeks on ¼ B&D (Broughton and Dilworth, (1971) Biochem. J. 125: 1075) supplemented with 0.5 μM potassium nitrate. Roots were treated with 10 μM BAP for three time points, 30 minutes, 3 hours and 8 hours. Untreated roots were taken as control. mRNA was also extracted from root segments of wild type and snf2 plants grown for 10 days on hormone-free B5 salt medium and B5 salt medium supplemented with 0.5 μg/ml of BAP. Dynabeads mRNA direct kit (Invitrogen) was used for the extraction of mRNA.
First strand cDNA was prepared using reverse transcriptase (Fermentas). Quantitative PCR was performed on a Light Cycler (Roche Molecular Biochemicals) using Fast Start DNA master SYBR green kit (Roche) to amplify the target transcripts from 5 μl diluted cDNA. Four house keeping genes (Czechowski et al., (2005) Genome analysis 139: 5) were used to determine the relative expression of target genes (see below). For each treatment, normalized relative ratios of the target genes and the four independent house keeping genes have been calculated using the Relative Quantification Software (Quant) from Roche. The geometric mean (Vandesompele et al., (2002)Genome Biology 3:1) of the relative expression ratios for the three biological and technical replicates and the corresponding 95% intervals of confidence have been calculated as described previously (Radutoiu et al., (2003) Nature 425: 585).

In test [2] the test system is mutant LHK1 cytokinin receptor (snf2 allele). The following applies: liquid culture, snf2 allele expressing cells (FIG. 5B). The text has this: (§1) In this assay cytokinin induction can be determined without interference from endogenous cytokinin levels, cytokinin penetration and interfering metabolic pathways present in plants. The phosphorelay exploited in this assay is normally involved in regulating bacterial extracellular polysaccharide synthesis through activation of the cps operon in response to a sensor (RcsC), which has a domain structure similar to plant cytokinin receptors. Functional expression of a cytokinin receptor in an E. coli strain deleted of RcsC sensor allows cytokinin perception to be read out as β-galactosidase activity from the expression of a cps::lacZ fusion.
(§2) Accordingly the Lhk1 cDNAs, corresponding to wild type and snf2 allele were cloned into the pIN-III expression vector and transformed into the sensor-negative SRC122 (ΔRcsC) strain harbouring the cps::lacZ gene. The transformants were grown overnight in liquid […] and then spotted on LB plates, supplemented with and without t-zeatin, kinetin, BAP (200 μM) each and thidiazuron (50 μM). The LB media was further supplemented with X-Gal (5-bromo-4-chloro-3-indolyl-β-D-[…]), a β-galactosidase substrate. After 40 hours incubation at room temperature (25° C.), the plates were photographed. E coli strain (SRC122) was taken as a negative control.

Test [3] deals with wild type LHK1 cytokinin receptor. The following applies: liquid culture, LHK1 expressing cells (FIG. 5B).
Description: as §1, §2

Test [4] deals with L. japonicus wild type and snf2 plants. The settings on record: increasing concentrations of BAP, 3 weeks (FIG. 8). How it is done:
Accordingly, wild type and snf2 plants were grown on ½ B5 salt with and without increasing concentrations of BAP for 3 weeks. Shoot and root length of at least 60 plants for each treatment was measured.

Test [5] deals with cps::lacZ reporter. Description: Two-component phosphorelay assay in E. coli SRC122 (cps::lacZ), receptor activity read out as β-galactosidase. The test is classed as cell-based. The following applies: LB plates with/without t-zeatin, kinetin, BAP (200 μM) or thidiazuron (50 μM), 40 hours, 25° C.
Description: as §1, §2

Test [6] concerns wild type Lotus roots. Description: Spontaneous nodulation of wild type hairy roots transformed via A. rhizogenes, scored without rhizobia. The test is classed as in vivo, Lotus japonicus. The following applies: scored in absence of M. loti. The method, then: Transgenic expression of the wild type or mutant snf2 allele in wild type Lotus roots was performed in order to confirm in planta the genetic basis for the spontaneous nodulation phenotype. A genomic fragment of 12.7 kb from the BAC clone 1 K18 was used to clone out the wild type Lhk1 gene including a 2.2 kb promoter region, and its Snf2 allele comprising the C→T transition, which were then sub-cloned into the pIV10 plasmid. The constructs were integrated into A. rhizogenes strain AR12 by tri-parental mating. Transformation was performed as described by Stougaard (1995) Method Mol Biology 49: Plant Gene Transfer and Expression Protocols, p. 49-63, and included transformation with an empty vector control.

With `c1ccc(CNc2ncnc3nc[nH]c23)cc1` [BAP, 6-benzylaminopurine], the “increase of Lrr5 transcript level” value in test [1] (snf2 and wild-type root explants on B5 medium, 0.5 μg/ml BAP, 10 days (FIG. 7B)) is reported as “two to three-fold”.
For the molecule `C/C(=C\CNc1ncnc2nc[nH]c12)CO` [Cytokinin, Trans-zeatin], in test [1] (direct treatment of intact snf2 and wild-type roots, 10 μM BAP, 30 minutes, 3 hours, 8 hours (FIG. 7C)), the Lrr5 transcript level entry is on record as “increased”. In addition, the Lhk1 gene transcripts result in test [1] (intact wild type and snf2 roots (FIG. 7D)) was “increase rapidly”. Further, the Nin gene transcription entry in test [1] (intact wild type and snf2 roots (FIG. 7E)) is “transcriptionally upregulated”. Moreover, the “increase of β-galactosidase activity on cytokinin addition” value in test [2] is reported as “only a marginal increase”. Moreover, in test [3], the “induction of β-galactosidase activity on cytokinin addition” value is given as “two fold induction”. For the same molecule, the “sensitivity of shoot and root growth of snf2 plants compared to wild type” value in test [4] is reported as “hypersensitive”.
“Wild type Lhk1 allele: Wild type Lotus histidine kinase gene Lhk1 (SEQ ID NO:1, 2) encoding LHK1 cytokinin receptor protein (SEQ ID NO:3)”: the “β-galactosidase activity, plate assay (X-Gal)” value in test [5] is listed as “induced β-galactosidase activity in a cytokinin-dependent fashion”. In test [6], the nodule number/nodulated plant is reported as 0 and the nodule number/plant was determined as 0. Further, the “% spontaneous nodulation” value in test [6] ((nodulated/total plants)) is listed as 0 (0/41) %.
